Test results: patent publication US8455450B2, “Methods for obtaining a therapeutically effective amount of hematopoietic precursor cells and long term engraftment thereof” (Biokine Therapeutics Ltd., priority 2006, dated 2013)
Bridge positions count the residues as written; N and C are the ends. Square brackets hold non-standard residues; d marks the D form. Peptide text beside a SMILES is read from it. * marks the point of attachment. 2Nal = N[C@@H](Cc1ccc2ccccc2c1)C(=O)O; Benzoyl(4-F) = O=C(c1ccc(F)cc1)*; Cit = NC(=O)NCCC[C@H](N)C(=O)O

Key:
[1] = system: hematopoietic progenitor cells (HPCs); assay: Mobilization of hematopoietic progenitor cells to the blood, colony-forming cell assay; assay type: in vivo, C57BL/6 mice
neutrophils = assay: Chemotherapy (cyclophosphamide)-induced neutropenia model, neutrophil counts; assay type: in vivo, C57BL/6 mice; details: cyclophosphamide 150 + 100 mg/kg i.p. days 1 and 4, treatment s.c. days 4-7 (4F-benzoyl-TN14003 5 mg/kg)
Protocol: In the chemotherapy-induced neutropenia model, a protocol as previously described was followed (Zuluaga et al., 2006). Briefly, Female C57BL/6 mice were injected intraperitoneally with 150 and 100 mg/kg of Cyclophosphamide (CPM) on days 1 and 4, respectively. Following the treatment with CPM, mice were injected s.c. with either G-CSF […], 4F-benzoyl-TN14003 (5 mg/kg) or their combination on day 4, 5, 6 and 7. Blood samples were drawn from each mouse on day 0 and two hours after G-CSF/4F-benzoyl-TN14003 injections on days 4, 5, 6 and 7. Lysis of the erythrocyte population in the blood samples was done using ACK lysis buffer. The number of neutrophils was determined by FACS after staining the cells with anti-PE-Gr-1 antibody.
Neutropenia was induced in female C57BL/6 mice by administration of a total dose of 250 mg/kg cyclophosphamide (CPM) in two 0.5 mL intraperitoneal injections scheduled at day 1 (150 mg/kg) and day 4 (100 mg/kg). The CPM protocol caused 4 days of neutropenia (from day 4 to day 8). When mice were treated with the combination of G-CSF and 4F-benzoyl-TN14003, a significant number of neutrophils was detected in the blood on day 6, as compared to mice that were treated with CPM only or with G-CSF or 4F-benzoyl-TN14003 alone (FIG. 12).

[2] = system: GR-1 positive cells, MNC and progenitors; assay: Cell counts in a bone marrow transplantation model; assay type: in vivo, mice; details: 900 Rad irradiation, BM transplant 5×10^6/mouse; 5 mg/kg s.c.
Excerpt: Mice received lethal total body irradiations of 900 Rad and were subsequently transplanted with BM cells from donor healthy mice (5×10^6/mouse). […] Flow cytometery was used to assess the number of cells in the blood and bone marrow (BM), and distinguish between the different populations. Cells were gated according to forward scatter and side scatter to exclude dead cells and to determine granulocytes (GR-1 positive cells) and mononuclear cells (MNC).

progenitor cells = assay: In vitro production of colonies, colony-forming cell assay without stromal cells; assay type: cell-based; details: no stromal cells; 4F-benzoyl-TN14003 10-500 ng/ml, G-CSF 10-500 ng/ml
Protocol: In order to evaluate the number of progenitor cells, a colony-forming cell assay was used. Burst forming units erythrocyte (BFU-E), colony forming units granulocyte-macrophage (CFU-GM), colony forming units megakaryocytes (CFU-M), and colony forming units granulocyte-erythrocyte-monocyte-macrophage (CFU-GEMM) were assayed by plating the cells (10^5/ml) in Iscove's-modified Dulbecco's Medium (IMDM) containing 1% methylcellulose, 15% FBS, 1% bovine serum albumin (BSA), and 4F-benzoyl-TN14003 by itself (10-500 ng/ml) or in combination with G-CSF (in concentrations of 10-500 ng/ml).

[3] = system: BM cells on stromal cells (14F1.1); assay: In vitro production of progenitors and mature cells from BM cells seeded on stromal cells (14F1.1); assay type: cell-based
Protocol: More specifically, the number of colonies was assayed by collecting the cells (10^5/plate) 4 days after treatment form the treated and control (untreated) plates, and evaluating the number of progenitor cells using a colony-forming cell assay. Burst forming units erythrocyte (BFU-E), colony forming units granulocyte-macrophage (CFU-GM), colony forming units megakaryocytes (CFU-M), and colony forming units granulocyte-erythrocyte-monocyte-macrophage (CFU-GEMM) were assayed by plating the cells in Iscove's-modified Dulbecco's Medium (IMDM) containing 1% methylcellulose, 15% FBS, 1% bovine serum albumin (BSA), 3 U/mL rh EPO, […] 2-mercaptoethanol, 2 mM L-glutamine, 50 ng/mL rmSCF, 10 ng/mL rmIL-3, […] rh Insulin, 10 ng/mL rh IL-6, and […] Human Transferrin (Methocult GF M3434; StemCell Technologies Inc.). The cultures were incubated at 37° C. in a humidified atmosphere containing 5% CO2. Seven days later, typical colonies were visually scored by morphologic criteria using a light microscope and the frequency of CFU was calculated. Staining colonies with benzidine dihydrochloride (Sigma, Israel) was used to localize hemoglobin-containing cells.

[4] = 5 mg/kg s.c. 4F-benzoyl-TN14003 or AMD3100, 2 h, G-CSF 2.5 μg s.c. twice a day for 4 days, combination 18 h after last G-CSF
[5] = peak at 5 and 10 mg/kg s.c., 2 h

N=C(N)NCCC[C@H](NC(=O)[C@@H]1CSSC[C@H](NC(=O)[C@H](Cc2ccc3ccccc3c2)NC(=O)[C@H](CCCNC(=N)N)NC(=O)[C@H](CCCNC(=N)N)NC(=O)c2ccc(F)cc2)C(=O)N[C@@H](Cc2ccc(O)cc2)C(=O)N[C@@H](CCCNC(N)=O)C(=O)N[C@@H](CCCCN)C(=O)N[C@H](CCCCN)C(=O)N2CCC[C@H]2C(=O)N[C@@H](Cc2ccc(O)cc2)C(=O)N[C@@H](CCCNC(=N)N)C(=O)N[C@@H](CCCNC(N)=O)C(=O)N1)C(N)=O [4F-benzoyl-TN14003, 4F-benzoly-Arg-Arg-Nal-Cys-Tyr-Cit-Lys-DLys-Pro-Tyr-Arg-Cit-Cys-Arg-NH2] ({Benzoyl(4-F)}-RR[2Nal]CY[Cit]K[dK]PYR[Cit]CR-NH2; disulfide 4-13)
BFU-E in blood, fold elevation of cell counts from control [1, 4]: 26 fold | CFU-GEMM in blood, fold elevation of cell counts from control [1, 4]: 44 fold | Progenitors in blood, fold elevation of cell counts from control [1, 4]: 7.1 fold | number of progenitor cells per 1 ml of blood, fold change from control ([1]; 5 mg/kg s.c., 30 min): 3.2 fold | number of progenitor cells per 1 ml of blood, fold change from control ([1]; 5 mg/kg s.c., 1 hour): 9.5 fold | BFU-E in blood, fold change from control ([1]; 5 mg/kg s.c., 1 h post injection): more than 200 fold | number of progenitor cells per 1 ml of blood, fold change from control ([1]; 5 mg/kg s.c., 2 hours): 13.6 fold | CFU-M in blood, fold change ([1]; 5 mg/kg s.c., 4 h): 4 fold | elevation in the number of progenitor cells in blood ([1]; 5 mg/kg s.c., 24 hours post-injection): almost disappeared | CFU-GM population in blood, fold elevation from control ([1]; 5 mg/kg s.c., after 2 h): 12.5 fold | number of BFU-E in blood, fold elevation from the control level ([1]; 5 and 10 mg/kg s.c., 2 h): more than 110 fold | number of progenitor cells in 1 ml of blood, fold elevation compared to non-treated mice ([1]; 5 or 10 mg/kg s.c., 2 h): ~10 fold | number of CFU-GEMM in blood, fold elevation from the control level [1, 5]: 2.5 fold | number of CFU-GM in blood, fold elevation from the control level [1, 5]: 11.8 fold | number of CFU-M in blood, fold elevation from the control level [1, 5]: 10.4 fold | number of neutrophils in blood as % of the initial number in normal (untreated) mice (neutrophils; day 6): only a mild effect | number of neutrophils in blood as % of the initial number (neutrophils; day 7): not sufficient to elevate neutrophil counts to their normal level | GR-1 and MNC cell counts in the BM [2]: stimulate GR-1 (left panel) and MNC (right panel) production in the BM | GR-1 positive cells in the blood [2]: mobilize GR-1 positive cells and reduce neutropenia | progenitor cell counts (total, CFU-GM, CFU-M, BFU-E, CFU-GEMM) in the BM [2]: stimulate production of various progenitors in the BM | production of colonies in vitro (progenitor cells): did not stimulate the production of colonies in vitro | differentiation and proliferation of BM cells on stromal cells (micrographs) ([3]; representative experiment, FIG. 17E): differentiating and proliferating | production of GR-1 and Ter119 positive cells and progenitors ([3]; stromal cells (14F1.1) seeded with BM cells, 4F-benzoyl-TN14003 10 microgram/ml, G-CSF 100 ng/ml, 4 days): stimulated the production of GR-1 and Ter119 positive cells as well as progenitors
